In BigSolDB 2.1:

Conditions: in water

solubility (mole fraction) (293.15 K)	solubility (mole fraction) (298.15 K)	solubility (mole fraction) (303.15 K)	solubility (mole fraction) (308.15 K)	solubility (mole fraction) (313.15 K)	solubility (mole fraction) (318.15 K)	Structure (SMILES)
0.000376	0.000522	0.000646	0.000794	0.000915	0.00105	COc1cc(C(=O)O)cc(OC)c1O
0.00212	0.00223	0.00229	0.00238	0.00244	0.00256	O=C(O)c1ccc(O)c(O)c1
0.000989	0.00117	0.00151	0.00182	0.0021	0.00239	COc1cc(C=O)ccc1O
0.00117	0.00122	0.00128	0.00131	0.00138	0.00143	O=C(O)c1cc(O)c(O)c(O)c1
